Assay results from ChEMBL document CHEMBL6182930, “Discovery of TBK1Molecular Glue Degraders as a Potential Strategy for the Treatment of Autosomal Dominant Polycystic Kidney Disease (ADPKD)” (J Med Chem, 2025).
Active and inactive are the calls of the source. No cut-off for these calls is given here.

How the values were obtained:
[1] = Half-life in rat at 2 mg/kg, iv measured after 24 hrs by LC-MS/MS analysis; assay type: ADME, organism-based; settings: in vivo
[2] = AUC (0 to infinity) in rat at 2 mg/kg, iv measured after 24 hrs by LC-MS/MS analysis; assay type: ADME, organism-based; settings: in vivo
[3] = target: T1, E3 ubiquitin-protein ligase RNF126/Serine/threonine-protein kinase TBK1 (Homo sapiens, UniProt Q9UHD2+Q9BV68); test: Molecular glue activity at RNF126/TBK1 in HEK293T cells assessed as induction of TBK1 degradation incubated for 16 hrs by Western blot analysis; assay type: cell-based
[4] = target: T1, E3 ubiquitin-protein ligase RNF126/Serine/threonine-protein kinase TBK1; test: Molecular glue activity at RNF126/TBK1 in human A549 cells assessed as induction of TBK1 degradation at 1 uM by Western blot analysis; assay type: cell-based; settings: time 2-24 hrs
Target sequence in this assay (Q9BV68 2-311 partner limits assumed): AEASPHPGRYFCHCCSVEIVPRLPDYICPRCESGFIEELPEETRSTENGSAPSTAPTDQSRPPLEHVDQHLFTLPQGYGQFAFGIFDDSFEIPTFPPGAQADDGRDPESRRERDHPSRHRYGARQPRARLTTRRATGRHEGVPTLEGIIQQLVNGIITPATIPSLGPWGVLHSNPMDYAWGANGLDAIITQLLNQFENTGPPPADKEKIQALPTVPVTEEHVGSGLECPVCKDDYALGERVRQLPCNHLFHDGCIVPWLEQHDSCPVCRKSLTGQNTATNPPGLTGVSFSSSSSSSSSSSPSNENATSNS
Target sequence in this assay (Q9UHD2 whole entry): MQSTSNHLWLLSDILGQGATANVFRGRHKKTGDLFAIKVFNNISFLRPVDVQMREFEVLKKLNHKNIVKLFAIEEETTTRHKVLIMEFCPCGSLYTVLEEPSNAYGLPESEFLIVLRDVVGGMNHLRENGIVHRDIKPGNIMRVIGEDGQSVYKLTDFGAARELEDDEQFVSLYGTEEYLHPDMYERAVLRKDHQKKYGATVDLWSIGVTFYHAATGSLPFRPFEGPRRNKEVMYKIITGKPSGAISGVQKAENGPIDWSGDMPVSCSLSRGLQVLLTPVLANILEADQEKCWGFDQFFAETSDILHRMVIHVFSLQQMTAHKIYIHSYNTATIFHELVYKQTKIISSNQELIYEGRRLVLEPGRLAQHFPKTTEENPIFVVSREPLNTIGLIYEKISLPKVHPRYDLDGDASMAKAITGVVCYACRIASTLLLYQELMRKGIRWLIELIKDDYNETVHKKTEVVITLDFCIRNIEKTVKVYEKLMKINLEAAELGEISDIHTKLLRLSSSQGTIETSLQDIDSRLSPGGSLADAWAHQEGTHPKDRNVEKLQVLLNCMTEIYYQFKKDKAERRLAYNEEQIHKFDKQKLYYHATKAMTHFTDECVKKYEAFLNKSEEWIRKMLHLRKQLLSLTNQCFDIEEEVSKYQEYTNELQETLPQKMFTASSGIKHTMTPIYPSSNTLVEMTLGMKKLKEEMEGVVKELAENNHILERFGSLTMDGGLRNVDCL

Kidney = test: Ex vivo inhibition of renal cystogenesis in wild type C57BL/6 mouse kidney assessed as suppression of 8-Br-cAMP-induced cyst development at 100 nM treated for 6 days by imaging analysis; assay type: functional, tissue-based; settings: time 6.0 day
[5] = Oral bioavailability in rat at 10 mg/kg measured after 24 hrs by LC-MS/MS analysis; assay type: ADME, organism-based; settings: in vivo
[6] = Cmax in rat at 2 mg/kg, iv measured after 24 hrs by LC-MS/MS analysis; assay type: ADME, organism-based; settings: in vivo
Mus musculus [7] = test: In vivo inhibition of TBK1-mediated activation of inflammatory pathway in PKD1 knockout ADPKD (Pkd1 flox/flox; Ksp-Cre) C57BL/6 mouse model assessed as decrease in phosphorylated IRF3 level in kidney at 5 mg/kg, SC administered from postnatal day 6 and measured on postnatal day 12 by Western blot analysis; assay type: functional, organism-based; settings: time 7.0 day
Mus musculus [8] = test: Anti-inflammatory activity in PKD1 knockout ADPKD (Pkd1 flox/flox; Ksp-Cre) C57BL/6 mouse model assessed as decrease in IFN-beta level in kidney at 5 mg/kg, SC administered from postnatal day 6 and measured on postnatal day 12 by RT-qPCR analysis; assay type: functional, organism-based; settings: time 7.0 day
[9] = Volume of distribution at steady state in rat at 2 mg/kg, iv measured after 24 hrs by LC-MS/MS analysis; assay type: ADME, organism-based; settings: in vivo, read-out: Vdss
[10] = target: T1, E3 ubiquitin-protein ligase RNF126/Serine/threonine-protein kinase TBK1; test: Molecular glue activity at RNF126/TBK1 in human A549 cells assessed as induction of TBK1 degradation at 1 uM measured after 24 hrs by Western blot analysis; assay type: cell-based
Target sequence in this assay (Q9BV68 2-311 partner limits assumed): as the sequence (Q9BV68 2-311 partner limits assumed) above
Target sequence in this assay (Q9UHD2 whole entry): as the sequence (Q9UHD2 whole entry) above

[11] = target: T1, E3 ubiquitin-protein ligase RNF126/Serine/threonine-protein kinase TBK1; test: Molecular glue activity at RNF126/TBK1 in HEK293T cells assessed as induction of TBK1 degradation at 1 uM pretreated with MG132 for 2 hrs followed by compound addition and measured after 16 hrs by Western blot analysis; assay type: cell-based
Target sequence in this assay (Q9BV68 2-311 partner limits assumed): as the sequence (Q9BV68 2-311 partner limits assumed) above
Target sequence in this assay (Q9UHD2 whole entry): as the sequence (Q9UHD2 whole entry) above

Mus musculus [12] = test: In vivo molecular glue activity at RNF126/TBK1 in PKD1 knockout ADPKD (Pkd1 flox/flox; Ksp-Cre) C57BL/6 mouse model assessed as decrease in TBK1 level in kidney at 5 mg/kg, SC administered from postnatal day 6 and measured on postnatal day 12 by Western blot analysis; assay type: functional, organism-based; settings: time 7.0 day
[13] = target: T1, E3 ubiquitin-protein ligase RNF126/Serine/threonine-protein kinase TBK1; test: Molecular glue activity at RNF126/TBK1 in HEK293T cells assessed as induction of TBK1 degradation at 1 uM incubated for 16 hrs by Western blot analysis; assay type: cell-based
Target sequence in this assay (Q9BV68 2-311 partner limits assumed): as the sequence (Q9BV68 2-311 partner limits assumed) above
Target sequence in this assay (Q9UHD2 whole entry): as the sequence (Q9UHD2 whole entry) above

[14] = target: T1, E3 ubiquitin-protein ligase RNF126/Serine/threonine-protein kinase TBK1; test: Molecular glue activity at RNF126/TBK1 in human A549 cells assessed as induction of TBK1 degradation by measuring maximal efficacy at 10 to 1000 nM incubated for 16 hrs by Western blot analysis relative to control; assay type: cell-based; settings: dose 10-1000 nM
Target sequence in this assay (Q9BV68 2-311 partner limits assumed): as the sequence (Q9BV68 2-311 partner limits assumed) above
Target sequence in this assay (Q9UHD2 whole entry): as the sequence (Q9UHD2 whole entry) above

half-life [1]: 4.47 h
AUC(0-inf) [2]: 1.03 µM·h
Activity [3]: Dose-dependent-effect
DC50 [3]: 351 nM
Activity [4]: Time-dependent-effect
bioavailability [5]: 2.77%
Cmax [6]: 1790 nM
Vd [9]: 17.3 L/kg
Activity [11]: inactive
Activity [13]: Active
Emax [14]: 71.9%
SMILES: COc1ccc(C(=O)/C=C/C(=O)N2CCN(CC3CCN(Cc4cccc(Nc5ncc6ccn(CCCNC(=O)C7CCC7)c6n5)c4)CC3)CC2)cc1
inhibition (Kidney): Active
inhibition (Mus musculus [7]): Active
Activity (Mus musculus [8]): Active
Activity [10]: Active; Maximal Tbk1 Degradation Observed
Activity (Mus musculus [12]): Active
